# Data from PubChem BioAssay (NCI).
#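 Dose response: 5 concentrations. Exposure: 48 h. Format: 96-well plates. Endpoint: linear interpolation; highest concentration if not reached. At the TGI there is no net growth.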
# Columns and labels:
# Assay in all cases: NCI anticancer screen, dose series, 48 h
# [1] = system: HS 578T breast
# [2] = system: A549 NSCLC
# [3] = system: HT29 colon
# [4] = system: SR leukemia
# [5] = system: EKVX NSCLC
# [6] = system: SNB-75 CNS
# [7] = system: MDA-N
# [8] = system: SK-OV-3 ovarian
# [9] = system: OVCAR-5 ovarian
# [10] = system: HCC-2998 colon
# [11] = system: SF-295 CNS
# [12] = system: OVCAR-3 ovarian
# [13] = system: SNB-19 CNS
# [14] = system: KM12 colon
# [15] = system: IGROV1 ovarian
# [16] = system: OVCAR-4 ovarian
# [17] = system: NCI-H23 lung
# [18] = system: SK-MEL-2 melanoma
# [19] = system: HOP-62 NSCLC
# [20] = system: RPMI-8226 leukemia
# [21] = system: RXF 393 renal
# [22] = system: NCI/ADR-RES ovarian
# [23] = system: NCI-H460 lung
# [24] = system: SW-620 colon
# [25] = system: MALME-3M melanoma
# [26] = system: U251 CNS
# [27] = system: SF-268 CNS
# [28] = system: K-562 leukemia
# [29] = system: PC-3 prostate
# [30] = system: UO-31 renal
# [31] = system: MDA-MB-435
# [32] = system: ACHN renal
# [33] = system: HCT-15 colon
# [34] = system: MCF7 breast
# [35] = system: CAKI-1 renal
# [36] = system: DU-145 prostate
# [37] = system: MDA-MB-231 breast
# [38] = system: COLO 205 colon
# [39] = system: OVCAR-8 ovarian
# [40] = system: UACC-257 melanoma
# [41] = system: MOLT-4 leukemia
# [42] = system: 786-0 renal
# [43] = system: BT-549 breast
# [44] = system: M14 melanoma
# [45] = system: A498 renal
# [46] = system: T-47D breast
# [47] = system: SK-MEL-5 melanoma
# [48] = system: NCI-H226 lung
# [49] = system: HCT-116 colon
# [50] = system: CCRF-CEM leukemia
# [51] = system: UACC-62 melanoma
# [52] = system: SN12C renal
# [53] = system: TK-10 renal
# [54] = system: SK-MEL-28 melanoma
# [55] = system: NCI-H522 lung
# [56] = system: HOP-92 NSCLC
# [57] = system: SF-539 CNS
# [58] = system: LOX IMVI melanoma
# [59] = system: HL-60(TB) leukemia
structure (smiles),measurement,setting,value
Cc1cc2c(c(C(=O)NCCC(=O)N[C@@H](C)C(=O)OCc3ccccc3)c1)Oc1c(cc(C)cc1C(=O)NCCC(=O)N[C@@H](C)C(=O)OCc1ccccc1)S2,TGI,[1],> 100 µM
same,TGI,[2],> 100 µM
same,TGI,[3],> 100 µM
same,TGI,[4],> 100 µM
same,TGI,[5],> 100 µM
same,TGI,[6],> 100 µM
same,TGI,[7],> 100 µM
same,TGI,[8],> 100 µM
same,TGI,[9],> 100 µM
same,TGI,[10],> 100 µM
same,TGI,[11],> 100 µM
same,TGI,[12],> 100 µM
same,TGI,[13],> 100 µM
same,TGI,[14],> 100 µM
same,TGI,[15],> 100 µM
same,TGI,[16],> 100 µM
same,TGI,[17],> 100 µM
same,TGI,[18],> 100 µM
same,TGI,[19],> 100 µM
same,TGI,[20],> 100 µM
same,TGI,[21],> 100 µM
same,TGI,[22],> 100 µM
same,TGI,[23],> 100 µM
same,TGI,[24],> 100 µM
same,TGI,[25],> 100 µM
same,TGI,[26],> 100 µM
same,TGI,[27],> 100 µM
same,TGI,[28],> 100 µM
same,TGI,[29],> 100 µM
same,TGI,[30],> 100 µM
same,TGI,[31],> 100 µM
same,TGI,[32],> 100 µM
same,TGI,[33],> 100 µM
same,TGI,[34],> 100 µM
same,TGI,[35],> 100 µM
same,TGI,[36],> 100 µM
same,TGI,[37],> 100 µM
same,TGI,[38],> 100 µM
same,TGI,[39],> 100 µM
same,TGI,[40],> 100 µM
same,TGI,[41],> 100 µM
same,TGI,[42],> 100 µM
same,TGI,[43],> 100 µM
same,TGI,[44],> 100 µM
same,TGI,[45],> 100 µM
same,TGI,[46],> 100 µM
same,TGI,[47],> 100 µM
same,TGI,[48],> 100 µM
same,TGI,[49],> 100 µM
same,TGI,[50],> 100 µM
same,TGI,[51],> 100 µM
same,TGI,[52],> 100 µM
CC1CC(=O)Nc2ccc(N=NN(C)C)cc2N1C=O (centres undefined),TGI,[1],> 100 µM
same,TGI,[2],> 100 µM
same,TGI,[3],> 100 µM
same,TGI,[5],> 100 µM
same,TGI,[6],> 100 µM
same,TGI,[7],> 100 µM
same,TGI,[8],> 100 µM
same,TGI,[9],> 100 µM
same,TGI,[10],> 100 µM
same,TGI,[11],> 100 µM
same,TGI,[12],> 100 µM
same,TGI,[13],> 100 µM
same,TGI,[14],> 100 µM
same,TGI,[15],> 100 µM
same,TGI,[16],> 100 µM
same,TGI,[17],> 100 µM
same,TGI,[18],> 100 µM
same,TGI,[19],> 100 µM
same,TGI,[20],> 100 µM
same,TGI,[21],> 100 µM
same,TGI,[22],> 100 µM
same,TGI,[23],> 100 µM
same,TGI,[24],> 100 µM
same,TGI,[25],> 100 µM
same,TGI,[26],> 100 µM
same,TGI,[27],> 100 µM
same,TGI,[28],> 100 µM
same,TGI,[29],> 100 µM
same,TGI,[30],> 100 µM
same,TGI,[31],> 100 µM
same,TGI,[32],> 100 µM
same,TGI,[53],> 100 µM
same,TGI,[33],> 100 µM
same,TGI,[34],> 100 µM
same,TGI,[35],> 100 µM
same,TGI,[36],> 100 µM
same,TGI,[37],> 100 µM
same,TGI,[38],> 100 µM
same,TGI,[54],> 100 µM
same,TGI,[39],> 100 µM
same,TGI,[40],> 100 µM
same,TGI,[41],> 100 µM
same,TGI,[42],> 100 µM
same,TGI,[43],> 100 µM
same,TGI,[44],> 100 µM
same,TGI,[46],> 100 µM
same,TGI,[47],> 100 µM
same,TGI,[48],> 100 µM
same,TGI,[49],> 100 µM
same,TGI,[50],> 100 µM
same,TGI,[51],> 100 µM
same,TGI,[55],> 100 µM
same,TGI,[52],> 100 µM
COc1ccc(N=N/C(=N/NC(=O)c2cc(Cl)ccc2C(=O)c2ccccc2)c2ccc(N(CCC#N)CCC#N)cc2C)cc1,TGI,[1],> 100 µM
same,TGI,[2],> 100 µM
same,TGI,[3],60.8 µM
same,TGI,[5],61.1 µM
same,TGI,[6],> 100 µM
same,TGI,[7],> 100 µM
same,TGI,[8],> 100 µM
same,TGI,[9],70 µM
same,TGI,[10],70.8 µM
same,TGI,[11],> 100 µM
same,TGI,[12],27.9 µM
same,TGI,[13],> 100 µM
same,TGI,[14],> 100 µM
same,TGI,[15],27.7 µM
same,TGI,[16],> 100 µM
same,TGI,[17],61.9 µM
same,TGI,[18],50 µM
same,TGI,[19],81.2 µM
same,TGI,[20],44.4 µM
same,TGI,[21],30.4 µM
same,TGI,[22],59.1 µM
same,TGI,[23],45.3 µM
same,TGI,[24],> 100 µM
same,TGI,[25],94.7 µM
same,TGI,[26],> 100 µM
same,TGI,[27],> 100 µM
same,TGI,[28],> 100 µM
same,TGI,[29],41.4 µM
same,TGI,[30],79.3 µM
same,TGI,[31],> 100 µM
same,TGI,[32],88.7 µM
same,TGI,[53],75.1 µM
same,TGI,[33],65.7 µM
same,TGI,[34],> 100 µM
same,TGI,[35],46 µM
same,TGI,[36],> 100 µM
same,TGI,[37],58.1 µM
same,TGI,[38],42.9 µM
same,TGI,[54],> 100 µM
same,TGI,[39],46.1 µM
same,TGI,[40],81 µM
same,TGI,[41],33.8 µM
same,TGI,[42],86.7 µM
same,TGI,[43],> 100 µM
same,TGI,[44],92 µM
same,TGI,[46],47.4 µM
same,TGI,[47],31.6 µM
same,TGI,[48],66.3 µM
same,TGI,[49],33.5 µM
same,TGI,[50],19.8 µM
same,TGI,[51],51.8 µM
same,TGI,[52],47.1 µM
COc1cc(O)c2c(=O)c(OC)c(-c3ccc4c(c3)OCO4)oc2c1OC,TGI,[1],> 50 µM
same,TGI,[2],> 50 µM
same,TGI,[3],> 50 µM
same,TGI,[5],> 50 µM
same,TGI,[6],31.9 µM
same,TGI,[7],> 50 µM
same,TGI,[8],> 50 µM
same,TGI,[9],> 50 µM
same,TGI,[56],44.2 µM
same,TGI,[10],> 50 µM
same,TGI,[11],> 50 µM
same,TGI,[12],> 50 µM
same,TGI,[13],> 50 µM
same,TGI,[14],> 50 µM
same,TGI,[15],> 50 µM
same,TGI,[16],> 50 µM
same,TGI,[17],> 50 µM
same,TGI,[18],> 50 µM
same,TGI,[19],> 50 µM
same,TGI,[21],> 50 µM
same,TGI,[22],> 50 µM
same,TGI,[23],> 50 µM
same,TGI,[24],> 50 µM
same,TGI,[25],> 50 µM
same,TGI,[26],> 50 µM
same,TGI,[27],> 50 µM
same,TGI,[28],> 50 µM
same,TGI,[29],> 50 µM
same,TGI,[30],> 50 µM
same,TGI,[31],> 50 µM
same,TGI,[32],> 50 µM
same,TGI,[57],> 50 µM
same,TGI,[53],> 50 µM
same,TGI,[33],> 50 µM
same,TGI,[34],> 50 µM
same,TGI,[35],> 50 µM
same,TGI,[36],> 50 µM
same,TGI,[37],> 50 µM
same,TGI,[38],> 50 µM
same,TGI,[54],> 50 µM
same,TGI,[39],> 50 µM
same,TGI,[40],> 50 µM
same,TGI,[41],> 50 µM
same,TGI,[42],> 50 µM
same,TGI,[43],> 50 µM
same,TGI,[44],> 50 µM
same,TGI,[45],> 50 µM
same,TGI,[46],> 50 µM
same,TGI,[47],> 50 µM
same,TGI,[48],> 50 µM
same,TGI,[58],> 50 µM
same,TGI,[49],> 50 µM
same,TGI,[59],> 50 µM
same,TGI,[50],> 50 µM
same,TGI,[51],> 50 µM
same,TGI,[55],> 50 µM
same,TGI,[52],> 50 µM
